# Measured values reported in patent publication US8674070B2, “Cancer-targeting peptides and uses thereof in cancer therapy” (Academia Sinica, priority 2009, dated 2014).
# Key:
# [1] = system: BT483 breast cancer xenografts; experiment: Treatment of breast tumor xenografts: tumor volume; assay type: in vivo, SCID mice; conditions: doxorubicin 3 mg/kg once a week for three weeks, tail vein; n=6, P<0.005
# Experimental: SCID mice (4-6 weeks of age) were injected s.c. in the dorsolateral flank with 1×10^7 BT483 cells to induce breast cancer xenografts. The tumor volumes in these mice were determined by the formula: length×[…]×0.52. The mice bearing xenograft tumors at a size of around 50-100 mm^3 were randomly assigned to four groups, each of which was treated as follows via administration through their tail veins.
# Group 1: treated with SP90 conjugated doxorubicin-containing liposomes (SP90-LD) at a doxorubicin dosage of 3 mg/kg, once a week for three weeks,
# Group 2: treated with doxorubicin-containing liposomes (LD), at a doxorubicin dosage of 3 mg/kg, once a week for three weeks,
# Group 3: treated with free doxorubicin (FD), at a doxorubicin dosage of 3 mg/kg, once a week for three weeks, and
# Group 4: treated with saline once a week for three weeks (blank control).
# Mouse body weights and tumor sizes were measured twice a week. Tumor volumes were calculated following the formula described above.
# [2] = Total white blood cell count in treated tumor-bearing mice; assay type: in vivo, SCID mice; conditions: three days after the last treatment (day 17); doxorubicin 3 mg/kg weekly x3
# Experimental: The total white blood cell (WBC) numbers in the treated mice were determined three days after the last treatment (i.e., on day 17) as follows. […] The blood was then mixed with a red blood cell lysis buffer containing 2% acetic acid and 1% of Gentian violet (Sigma-Aldrich, Saint Louis, Mo., USA) and incubated at room temperature. The number of the WBCs was countered using a hemacytometer.
# tumor blood vessels = experiment: Tumor blood vessel staining with tomato lectin; assay type: in vivo, SCID mice; conditions: doxorubicin 3 mg/kg weekly x3; FIG. 3 Panel B
# Text: Tumor tissues were removed from the treated mice, fixed with 4% paraformaldehyde and embedded with paraffin. Blood vessels in the tumor tissues were detected by staining with Lycopersicon esculentum (tomato) lectin conjugated to biotin (Vector, CA, USA) and then with streptavidin-conjugated rhodamine (Pierce, Ill., USA).
# [3] = Doxorubicin localization in tumor tissues of treated mice; assay type: in vivo, SCID mice; conditions: 2 mg/kg tail vein
# Text: At selected time points, three mice in each group were anaesthetized and sacrificed.
# [4] = system: cancer cells in breast cancer tissue samples; experiment: Peptide competition assay on cancer tissue samples; assay type: binding, human; conditions: peptide 100 ng/ml; PC90 10^9 pfu
# Experimental: The cancer targeting activity of PC90 was confirmed by a peptide competition assay, in which the cancer tissue samples were incubated with (1) the synthetic peptide (100 ng/ml) SMDPFLFQLLQL (SEQ ID NO:5) (SP90) and PC90 (10^9 pfu) or (2) the control peptide (100 ng/ml) RLLDTNRPLLPY (SEQ ID NO:6; see Lee et al., cancer Res. 64:8002-8008, 2004) and PC90. SP90 and the control peptide were synthesized and purified by reverse-phase high-performance liquid chromatography. The resultant peptides, having a purity of greater than 95%, were conjugated, if necessary, with FITC or biotin at their N-termini.
# breast tumor xenografts = experiment: In vivo peptide competition: co-injection with PC90 in mice bearing breast tumor xenografts; conditions: 100 μg peptide co-injected with PC90
# Experimental: SP90 was co-administered to test its ability of blocking PC90 from binding to the tumor tissues. Briefly, 100 μg SP90 or the control peptides described above were co-injected with PC90 to mice bearing breast tumor xenografts. The normal organs and tumor tissues were removed and fixed in Bouin's solution (Sigma, Mo., USA). After fixation, the samples were embedded in paraffin blocks, sliced to sections, and the sections were deparaffinized, rehydrated, and subjected to immunostaining using the mouse anti-M13 mAb described in Example 1 above.
Compound,"average tumor volume, fold larger than that of the Group 2 mice [1] [fold]",total number of the WBCs [2],number of tumor vessels / tumor vascular density (lectin staining) (tumor blood vessels),areas of tumor tissue in which doxorubicin was detected (autofluorescence) [3],competition against PC90 for binding to the cancer cells in the tissue samples [4],inhibition of PC90 binding to the tumor tissues (breast tumor xenografts)
"COc1cccc2c1C(=O)c1c(O)c3c(c(O)c1C2=O)C[C@@](O)(C(=O)CO)C[C@@H]3O[C@H]1C[C@H](N)[C@H](O)[C@H](C)O1 [FD, doxorubicin]",8.3,5.6×10^3 /mm^3,high tumor vascular density,detected only in limited areas,,
RLLDTNRPLLPY [control peptide],,,,,not,did not exhibit any inhibitory activity
SMDPFLFQLLQL [SP90],,,,,competed against PC90 for binding to the cancer cells,97%
